Measurements taken from patent US20140128367A1, “CYCLOALKYL-FUSED TETRAHYDROQUINOLINES AS CRTH2 RECEPTOR MODULATORS” (Merck Sharp & Dohme Corp., priority 2011, published 2014).
Read-outs that look alike come from different tables or passages of the source.

Experiments:
hCRTH2 [1] = biological target: T1, hCRTH2 (Homo sapiens, UniProt Q9Y5Y4); assay: biochemical; details: Radioligand Binding Assay A, 3.0 nM [3H]PGD2, HEK-hCRTH2 membranes
T1 sequence (Q9Y5Y4 1-395): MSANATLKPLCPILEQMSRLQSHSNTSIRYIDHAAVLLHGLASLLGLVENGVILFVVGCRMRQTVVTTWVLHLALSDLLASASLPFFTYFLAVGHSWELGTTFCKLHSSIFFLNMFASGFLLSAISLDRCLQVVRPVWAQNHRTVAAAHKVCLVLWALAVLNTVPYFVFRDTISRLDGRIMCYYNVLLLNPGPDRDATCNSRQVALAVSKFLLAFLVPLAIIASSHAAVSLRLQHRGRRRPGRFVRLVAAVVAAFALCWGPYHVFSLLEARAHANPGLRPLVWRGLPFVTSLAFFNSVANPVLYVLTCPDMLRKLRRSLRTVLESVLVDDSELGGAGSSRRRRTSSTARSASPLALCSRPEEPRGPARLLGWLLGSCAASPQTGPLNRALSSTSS

hCRTH2 [2] = biological target: T1, hCRTH2; design: expressed in transfected cells; host or cells: HEK (human embryonic kidney) cell line expressing hCRTH2; details: Radioligand Binding Assay B, 0.7 nM [3H]PGD2, HEK-hCRTH2 membranes; rated A-D

| Ki (hCRTH2 [1]) [µM] | Ki (hCRTH2 [2]) [µM] | SMILES |
| --- | --- | --- |
| 0.0024 | – | CCc1ccc(C(=O)N2c3cc(Cl)ccc3C(N(C(=O)CCC(=O)O)C3CCC3)C3CCCC32)cc1 (single isomer, unassigned) [17CQ, 4-[[cis, cis-6-chloro-4-(4-ethylbenzoyl)-2,3,3a,4,9,9a-hexahydro-1H-cyclopenta[b]quinolin-9-yl]cyclobutylamino]-4-oxobutanoic acid] |
| – | 0.0201 to 0.2 | O=C(O)CCC(=O)N(C1CC1)[C@@H]1c2ccc(F)cc2N(C(=O)c2ccccc2)[C@@H]2CCC[C@@H]21 (racemic) [16D, 4-{cyclopropyl[cis, cis-6-fluoro-4-(phenylcarbonyl)-2,3,3a,4,9,9a-hexahydro-1H-cyclopenta[b]quinolin-9-yl]amino}-4-oxobutanoic acid] |
